Measured values as given in ChEMBL document CHEMBL3045171, “Design and synthesis of some pyrazole derivatives of expected anti-inflammatory and analgesic activities” (Med Chem Res, 2012).

Tests used:
Rattus norvegicus [1] = assay: Anti-inflammatory activity in Rattus norvegicus albino (rat) assessed as inhibition of carrageenan-induced paw edema at 25 mg/kg, ip pretreated 30 min prior to carrageenan administration measured 3 hr after carrageenan challenge (reference value: 0%); format: functional; settings: route intraperitoneal
Rattus norvegicus [2] = assay: Gastrointestinal toxicity in Rattus norvegicus albino (rat) assessed as ulcer index at 25 mg/kg, po for 3 days measured 2 hr after last dose; format: organism-based; design: dose 25 mg/kg, route oral; settings: in vivo
Mus musculus [3] = assay: Analgesic activity in Mus musculus (mouse) assessed as inhibition of p-benzoquinone-induced writhing at 25 mg/kg, ip pretreated 30 min prior to carrageenan administration measured 2 hr after carrageenan challenge (reference value: 0%); format: functional; settings: route intraperitoneal
Mus musculus [4] = assay: Analgesic activity in Mus musculus (mouse) assessed as inhibition of p-benzoquinone-induced writhing at 25 mg/kg, ip pretreated 30 min prior to carrageenan administration measured 3 hr after carrageenan challenge (reference value: 0%); format: functional; settings: route intraperitoneal
Mus musculus [5] = assay: Analgesic activity in Mus musculus (mouse) assessed as inhibition of p-benzoquinone-induced writhing at 25 mg/kg, ip pretreated 30 min prior to carrageenan administration measured 4 hr after carrageenan challenge (reference value: 0%); format: functional; settings: route intraperitoneal
Mus musculus [6] = assay: Analgesic activity in Mus musculus (mouse) assessed as inhibition of p-benzoquinone-induced writhing at 25 mg/kg, ip pretreated 30 min prior to carrageenan administration measured 1 hr after carrageenan challenge (reference value: 0%); format: functional; settings: route intraperitoneal
[7] = Toxicity in ip dosed Mus musculus (mouse) after 24 hr; format: organism-based; settings: in vivo
Rattus norvegicus [8] = assay: Anti-inflammatory activity in Rattus norvegicus albino (rat) assessed as inhibition of carrageenan-induced paw edema at 25 mg/kg, ip pretreated 30 min prior to carrageenan administration measured 4 hr after carrageenan challenge (reference value: 0%); format: functional; settings: route intraperitoneal
Rattus norvegicus [9] = assay: Anti-inflammatory activity in Rattus norvegicus albino (rat) assessed as inhibition of carrageenan-induced paw edema at 25 mg/kg, ip pretreated 30 min prior to carrageenan administration measured 2 hr after carrageenan challenge (reference value: 0%); format: functional; settings: route intraperitoneal
Rattus norvegicus [10] = assay: Anti-inflammatory activity in Rattus norvegicus albino (rat) assessed as inhibition of carrageenan-induced paw edema at 25 mg/kg, ip pretreated 30 min prior to carrageenan administration measured 1 hr after carrageenan challenge (reference value: 0%); format: functional; settings: route intraperitoneal

C=C(C)C(=O)c1ccc(OC)cc1OC
inhibition in vivo at 25 mg/kg (Rattus norvegicus [1]): 31.5%
UI (Rattus norvegicus [2]): 15.24
inhibition in vivo at 25 mg/kg (Mus musculus [3]): 20%
inhibition in vivo at 25 mg/kg (Mus musculus [4]): 0%
inhibition in vivo at 25 mg/kg (Mus musculus [5]): 0%
inhibition in vivo at 25 mg/kg (Mus musculus [6]): 20%
LD50 at 24 h [7]: 278 mg/kg
inhibition in vivo at 25 mg/kg (Rattus norvegicus [8]): 32.3%
inhibition in vivo at 25 mg/kg (Rattus norvegicus [9]): 29.8%
inhibition in vivo at 25 mg/kg (Rattus norvegicus [10]): 23.7%

C=C(C(=O)c1ccc(OC)cc1OC)c1ccccc1
inhibition in vivo at 25 mg/kg (Rattus norvegicus [1]): 1.92%
LD50 at 24 h [7]: 232 mg/kg
inhibition in vivo at 25 mg/kg (Rattus norvegicus [8]): 2.9%
inhibition in vivo at 25 mg/kg (Rattus norvegicus [9]): 1.43%
inhibition in vivo at 25 mg/kg (Rattus norvegicus [10]): 0%

COc1ccc(C2=NNCC2C)c(OC)c1 (stereo unspecified)
inhibition in vivo at 25 mg/kg (Rattus norvegicus [1]): 45.1%
UI (Rattus norvegicus [2]): 11.67
inhibition in vivo at 25 mg/kg (Mus musculus [3]): 60%
inhibition in vivo at 25 mg/kg (Mus musculus [4]): 40%
inhibition in vivo at 25 mg/kg (Mus musculus [5]): 20%
inhibition in vivo at 25 mg/kg (Mus musculus [6]): 80%
LD50 at 24 h [7]: 292 mg/kg
inhibition in vivo at 25 mg/kg (Rattus norvegicus [8]): 44.4%
inhibition in vivo at 25 mg/kg (Rattus norvegicus [9]): 44.5%
inhibition in vivo at 25 mg/kg (Rattus norvegicus [10]): 40.4%

COc1ccc(C2=NNCC2c2ccccc2)c(OC)c1 (stereo unspecified)
inhibition in vivo at 25 mg/kg (Rattus norvegicus [1]): 1.8%
LD50 at 24 h [7]: 278 mg/kg
inhibition in vivo at 25 mg/kg (Rattus norvegicus [8]): 1.92%
inhibition in vivo at 25 mg/kg (Rattus norvegicus [9]): 0%
inhibition in vivo at 25 mg/kg (Rattus norvegicus [10]): 0%

COc1ccc(C2=NN(C(=O)NS(=O)(=O)c3ccc(C)cc3)CC2C)c(OC)c1 (stereo unspecified)
inhibition in vivo at 25 mg/kg (Rattus norvegicus [1]): 25.2%
inhibition in vivo at 25 mg/kg (Mus musculus [3]): 20%
inhibition in vivo at 25 mg/kg (Mus musculus [4]): 0%
inhibition in vivo at 25 mg/kg (Mus musculus [5]): 0%
inhibition in vivo at 25 mg/kg (Mus musculus [6]): 20%
LD50 at 24 h [7]: 232 mg/kg
inhibition in vivo at 25 mg/kg (Rattus norvegicus [8]): 25.1%
inhibition in vivo at 25 mg/kg (Rattus norvegicus [9]): 27.3%
inhibition in vivo at 25 mg/kg (Rattus norvegicus [10]): 23.7%

COc1ccc(C2=NN(C(=O)NS(=O)(=O)c3ccc(Cl)cc3)CC2C)c(OC)c1 (stereo unspecified)
inhibition in vivo at 25 mg/kg (Rattus norvegicus [1]): 16.4%
LD50 at 24 h [7]: 248 mg/kg
inhibition in vivo at 25 mg/kg (Rattus norvegicus [8]): 18.8%
inhibition in vivo at 25 mg/kg (Rattus norvegicus [9]): 14.6%
inhibition in vivo at 25 mg/kg (Rattus norvegicus [10]): 12.2%

COc1ccc(C2=NN(C(=O)NS(=O)(=O)c3ccc(C)cc3)CC2c2ccccc2)c(OC)c1 (stereo unspecified)
inhibition in vivo at 25 mg/kg (Rattus norvegicus [1]): 4.83%
LD50 at 24 h [7]: 292 mg/kg
inhibition in vivo at 25 mg/kg (Rattus norvegicus [8]): 7.21%
inhibition in vivo at 25 mg/kg (Rattus norvegicus [9]): 6.33%
inhibition in vivo at 25 mg/kg (Rattus norvegicus [10]): 4.9%

COc1ccc(C2=NN(C(=O)NS(=O)(=O)c3ccc(Cl)cc3)CC2c2ccccc2)c(OC)c1 (stereo unspecified)
inhibition in vivo at 25 mg/kg (Rattus norvegicus [1]): 25.7%
inhibition in vivo at 25 mg/kg (Mus musculus [3]): 40%
inhibition in vivo at 25 mg/kg (Mus musculus [4]): 20%
inhibition in vivo at 25 mg/kg (Mus musculus [5]): 0%
inhibition in vivo at 25 mg/kg (Mus musculus [6]): 40%
LD50 at 24 h [7]: 248 mg/kg
inhibition in vivo at 25 mg/kg (Rattus norvegicus [8]): 23.6%
inhibition in vivo at 25 mg/kg (Rattus norvegicus [9]): 27.3%
inhibition in vivo at 25 mg/kg (Rattus norvegicus [10]): 24.1%

COc1ccc(C2=NN(C(=S)NC(=O)c3ccc(Cl)cc3)CC2C)c(OC)c1 (stereo unspecified)
inhibition in vivo at 25 mg/kg (Rattus norvegicus [1]): 1.94%
LD50 at 24 h [7]: 232 mg/kg
inhibition in vivo at 25 mg/kg (Rattus norvegicus [8]): 1.43%
inhibition in vivo at 25 mg/kg (Rattus norvegicus [9]): 0%
inhibition in vivo at 25 mg/kg (Rattus norvegicus [10]): 0%

COc1ccc(C2=NN(C(=S)NC(=O)c3ccc(Cl)cc3)CC2c2ccccc2)c(OC)c1 (stereo unspecified)
inhibition in vivo at 25 mg/kg (Rattus norvegicus [1]): 1.43%
LD50 at 24 h [7]: 292 mg/kg
inhibition in vivo at 25 mg/kg (Rattus norvegicus [8]): 1.92%
inhibition in vivo at 25 mg/kg (Rattus norvegicus [9]): 0%
inhibition in vivo at 25 mg/kg (Rattus norvegicus [10]): 0%

CCOC(=O)C(=O)C(C)C(=O)c1ccc(OC)cc1OC (stereo unspecified)
inhibition in vivo at 25 mg/kg (Rattus norvegicus [1]): 26.1%
LD50 at 24 h [7]: 278 mg/kg
inhibition in vivo at 25 mg/kg (Rattus norvegicus [8]): 24.6%
inhibition in vivo at 25 mg/kg (Rattus norvegicus [9]): 27.2%
inhibition in vivo at 25 mg/kg (Rattus norvegicus [10]): 23.7%

CCOC(=O)C(=O)C(C(=O)c1ccc(OC)cc1OC)c1ccccc1 (stereo unspecified)
inhibition in vivo at 25 mg/kg (Rattus norvegicus [1]): 20.8%
LD50 at 24 h [7]: 278 mg/kg
inhibition in vivo at 25 mg/kg (Rattus norvegicus [8]): 21.2%
inhibition in vivo at 25 mg/kg (Rattus norvegicus [9]): 20%
inhibition in vivo at 25 mg/kg (Rattus norvegicus [10]): 15.1%

CCOC(=O)c1nn(-c2ccccc2)c(-c2ccc(OC)cc2OC)c1C
inhibition in vivo at 25 mg/kg (Rattus norvegicus [1]): 5.81%
LD50 at 24 h [7]: 278 mg/kg
inhibition in vivo at 25 mg/kg (Rattus norvegicus [8]): 5.77%
inhibition in vivo at 25 mg/kg (Rattus norvegicus [9]): 4.86%
inhibition in vivo at 25 mg/kg (Rattus norvegicus [10]): 4.9%

CCOC(=O)c1nn(-c2ccc(Cl)cc2)c(-c2ccc(OC)cc2OC)c1C
inhibition in vivo at 25 mg/kg (Rattus norvegicus [1]): 2.22%
inhibition in vivo at 25 mg/kg (Mus musculus [3]): 40%
inhibition in vivo at 25 mg/kg (Mus musculus [4]): 20%
inhibition in vivo at 25 mg/kg (Mus musculus [5]): 0%
inhibition in vivo at 25 mg/kg (Mus musculus [6]): 40%
LD50 at 24 h [7]: 248 mg/kg
inhibition in vivo at 25 mg/kg (Rattus norvegicus [8]): 2.38%
inhibition in vivo at 25 mg/kg (Rattus norvegicus [9]): 1.43%
inhibition in vivo at 25 mg/kg (Rattus norvegicus [10]): 0%

CCOC(=O)c1nn(-c2ccccc2)c(-c2ccc(OC)cc2OC)c1-c1ccccc1
inhibition in vivo at 25 mg/kg (Rattus norvegicus [1]): 20.8%
LD50 at 24 h [7]: 292 mg/kg
inhibition in vivo at 25 mg/kg (Rattus norvegicus [8]): 20.2%
inhibition in vivo at 25 mg/kg (Rattus norvegicus [9]): 20.5%
inhibition in vivo at 25 mg/kg (Rattus norvegicus [10]): 17.7%

CCOC(=O)c1nn(-c2ccc(Cl)cc2)c(-c2ccc(OC)cc2OC)c1-c1ccccc1
inhibition in vivo at 25 mg/kg (Rattus norvegicus [1]): 15%
LD50 at 24 h [7]: 278 mg/kg
inhibition in vivo at 25 mg/kg (Rattus norvegicus [8]): 15.4%
inhibition in vivo at 25 mg/kg (Rattus norvegicus [9]): 12.7%
inhibition in vivo at 25 mg/kg (Rattus norvegicus [10]): 6.89%

COc1ccc(-c2c(C)c(C(=O)O)nn2-c2ccc(Cl)cc2)c(OC)c1
inhibition in vivo at 25 mg/kg (Rattus norvegicus [1]): 22.8%
inhibition in vivo at 25 mg/kg (Mus musculus [3]): 20%
inhibition in vivo at 25 mg/kg (Mus musculus [4]): 20%
inhibition in vivo at 25 mg/kg (Mus musculus [5]): 0%
inhibition in vivo at 25 mg/kg (Mus musculus [6]): 40%
LD50 at 24 h [7]: 232 mg/kg
inhibition in vivo at 25 mg/kg (Rattus norvegicus [8]): 22.7%
inhibition in vivo at 25 mg/kg (Rattus norvegicus [9]): 28.4%
inhibition in vivo at 25 mg/kg (Rattus norvegicus [10]): 24.7%

COc1ccc(-c2c(-c3ccccc3)c(C(=O)O)nn2-c2ccc(Cl)cc2)c(OC)c1
inhibition in vivo at 25 mg/kg (Rattus norvegicus [1]): 45.5%
UI (Rattus norvegicus [2]): 11.56
inhibition in vivo at 25 mg/kg (Mus musculus [3]): 60%
inhibition in vivo at 25 mg/kg (Mus musculus [4]): 40%
inhibition in vivo at 25 mg/kg (Mus musculus [5]): 20%
inhibition in vivo at 25 mg/kg (Mus musculus [6]): 80%
LD50 at 24 h [7]: 232 mg/kg
inhibition in vivo at 25 mg/kg (Rattus norvegicus [8]): 42.5%
inhibition in vivo at 25 mg/kg (Rattus norvegicus [9]): 42%
inhibition in vivo at 25 mg/kg (Rattus norvegicus [10]): 37%

COc1ccc(C(=O)Cc2ccccc2)c(OC)c1
inhibition in vivo at 25 mg/kg (Rattus norvegicus [1]): 15%
LD50 at 24 h [7]: 278 mg/kg
inhibition in vivo at 25 mg/kg (Rattus norvegicus [8]): 15.9%
inhibition in vivo at 25 mg/kg (Rattus norvegicus [9]): 11.2%
inhibition in vivo at 25 mg/kg (Rattus norvegicus [10]): 5.91%

Cc1ccc(-c2cc(C(F)(F)F)nn2-c2ccc(S(N)(=O)=O)cc2)cc1 [CELECOXIB]
inhibition in vivo at 25 mg/kg (Rattus norvegicus [1]): 64%
UI (Rattus norvegicus [2]): 8.4
inhibition in vivo at 25 mg/kg (Mus musculus [3]): 100%
inhibition in vivo at 25 mg/kg (Mus musculus [4]): 80%
inhibition in vivo at 25 mg/kg (Mus musculus [5]): 80%
inhibition in vivo at 25 mg/kg (Mus musculus [6]): 100%
LD50 at 24 h [7]: 250 mg/kg
inhibition in vivo at 25 mg/kg (Rattus norvegicus [8]): 62.8%
inhibition in vivo at 25 mg/kg (Rattus norvegicus [9]): 61.1%
inhibition in vivo at 25 mg/kg (Rattus norvegicus [10]): 54.2%

CC(C)Cc1ccc(C(C)C(=O)O)cc1 (stereo unspecified) [IBUPROFEN]
inhibition in vivo at 25 mg/kg (Rattus norvegicus [1]): 66.7%
UI (Rattus norvegicus [2]): 22.92
inhibition in vivo at 25 mg/kg (Rattus norvegicus [8]): 76.1%
inhibition in vivo at 25 mg/kg (Rattus norvegicus [9]): 63.5%
inhibition in vivo at 25 mg/kg (Rattus norvegicus [10]): 55.4%
